Patent publication US10184115B2, “Mutated cellobiose dehydrogenase with increased substrate specificity” (DIRECTSENS GMBH, priority 2012, dated 2019)

Biological target: T1, Myriococcum thermophilum cellobiose dehydrogenase (CDH, SEQ ID NO: 1) variant N313S (Thermothelomyces myriococcoides, UniProt A9XK88, N313S)
T1 sequence (A9XK88 22-828 N313S): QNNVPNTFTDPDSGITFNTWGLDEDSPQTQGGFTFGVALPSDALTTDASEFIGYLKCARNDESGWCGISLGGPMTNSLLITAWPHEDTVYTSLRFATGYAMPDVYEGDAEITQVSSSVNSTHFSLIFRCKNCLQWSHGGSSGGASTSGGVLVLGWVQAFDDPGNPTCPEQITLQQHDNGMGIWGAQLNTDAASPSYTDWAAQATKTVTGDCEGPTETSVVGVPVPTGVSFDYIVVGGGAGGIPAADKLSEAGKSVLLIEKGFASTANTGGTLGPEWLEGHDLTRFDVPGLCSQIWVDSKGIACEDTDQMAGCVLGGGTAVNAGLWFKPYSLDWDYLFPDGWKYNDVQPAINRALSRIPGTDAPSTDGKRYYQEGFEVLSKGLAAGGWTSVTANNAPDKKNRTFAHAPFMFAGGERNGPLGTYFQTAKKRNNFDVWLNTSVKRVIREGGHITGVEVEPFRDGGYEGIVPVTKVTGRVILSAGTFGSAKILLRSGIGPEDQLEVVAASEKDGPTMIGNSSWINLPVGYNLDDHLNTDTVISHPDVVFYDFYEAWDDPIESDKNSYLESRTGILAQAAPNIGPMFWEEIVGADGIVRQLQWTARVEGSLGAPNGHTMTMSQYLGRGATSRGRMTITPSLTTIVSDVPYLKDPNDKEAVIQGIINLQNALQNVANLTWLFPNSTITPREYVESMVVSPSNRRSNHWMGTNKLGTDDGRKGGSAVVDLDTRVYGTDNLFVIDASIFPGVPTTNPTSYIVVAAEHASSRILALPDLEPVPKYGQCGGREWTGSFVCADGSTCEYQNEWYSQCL
Assay: Steady-state kinetics, DCIP assay: M. thermophilum CDH N313S
Format: biochemical
Conditions: apparent, pH 4.5, 30° C.
Procedure: Enzyme activity was assayed at 30° C. using either the DCIP (Karapetyan et al., 2005 Journal of Biotechnology 121: 34-48) or cytochrome c (Canevascini et al., 1991, European Journal of Biochemistry 198: 43-52) as electron acceptor. […] Stock solutions of carbohydrates used for kinetic measurements were prepared in the respective buffer and allowed to stand overnight for mutarotation, while stock solutions of electron acceptors were prepared in water and immediately used. The reaction stoichiometry is 1 for the two-electron acceptor DCIP (1 mole of DCIP reduced per mole of carbohydrate oxidized), but 2 for the one-electron acceptor cytochrome c. Kinetic constants were calculated by fitting the observed data to the Henri-Michaelis-Menten equation or to the adapted model for substrate inhibition using nonlinear least-squares regression and the program SigmaPlot (Systat Software, San Jose, Calif., USA). […]
Recombinant wild-type CDH as well as variants were produced in 1 L baffled flasks. […] Increase in activity was monitored using the DCIP and the cytochrome c enzyme assays. […]
The sample was loaded on a 20 mL PHE Sepharose FF column (HR26/20) equilibrated with 50 mM Na-acetate buffer pH 5.5 containing 20% ammonium sulfate. […] Fractions were tested for CDH activity and pooled according to the highest Reinheitszahl (RZ, calculated from the absorbance ratio 420 nm/280 nm). […]

SMILES: OC[C@H]1OC(O)[C@H](O)[C@@H](O)[C@@H]1O (some centres unmarked) [Glucose, glucose]
- kcat: 6.8 s⁻¹
- kcat/KM: 8.8 M⁻¹ s⁻¹
